In patent US7259174B2, “Imidazolidinone compounds” (National Health Research Institutes, priority 2004, dated 2007):

How the values were obtained:
EV71-4643 = assay: plaque reduction assay, EV71-4643; type: cell-based, Enterovirus 71 (EV71); settings: Enterovirus A, vero cells, plaques counted after 96 hours at 35° C.
From the text: (§1) Enterovirus 71 (EV71) isolates were obtained from Chang Gung Children's Hospitals (Taipei, Taiwan) and National Cheng Kung University Hospital (Tainan, Taiwan). EV71-2231 and EV71-1743 were isolated from throat swabs. EV71-2086 was isolated from the skin lesion of an implicated HFMD (hand, foot, and mouth disease) patient. EV71-4643 was a clinical isolate obtained from the throat swabs of a patient with encephalitis). BrCr, the prototype of EV71, was obtained from the American Type Culture Collection (ATCC Accession No. VR 784). Vero cells (ATCC Accession No. CCL-81) were used for virus isolation and propagation.
(§2) The antiviral activity of a number of imidazolidinone compounds was determined by a standard plaque reduction assay as described in Otto et al., Antimicrobial Agents & Chemotherapy, 1985, 27:883-886.
(§3) A compound to be tested was serially diluted and included in the agar-medium overlay. Plates were incubated at 35° C. for 96 hours. The plaques were stained with crystal violet and counted.

EV71-2231 = assay: plaque reduction assay, EV71-2231; type: cell-based, Enterovirus 71 (EV71); settings: Enterovirus A, vero cells, plaques counted after 96 hours at 35° C.
From the text: as §1, §2, §3

Structure (SMILES): CCO/N=C/c1ccc(OCC[C@@H](C)CCN2CCN(c3ccncc3)C2=O)cc1 [Compound 8, 4-[(S)-3-methyl-5-(2-oxo-3-pyridin-4-yl-imidazolidin-1-yl)-pentyloxy]-benzaldehyde O-ethyl-oxime]
- IC50 (EV71-4643): ≤ 38.1 nM
- IC50 (EV71-2231): ≤ 38.1 nM

Structure (SMILES): CCO/N=C/c1ccc(OCCC(C)CCN2CCN(c3ccncc3)C2=O)cc1 (centres unmarked) [Compound 5, 4-[3-methyl-5-(2-oxo-3-pyridin-4-yl-imidazolidin-1-yl)-pentyloxy]-benzaldehyde O-ethyl-oxime]
- IC50 (EV71-4643): ≤ 38.1 nM
- IC50 (EV71-2231): ≤ 38.1 nM

Structure (SMILES): CCO/N=C/c1ccc(OCCC(C)(C)CCN2CCN(c3ccncc3)C2=O)cc1 [Compound 6, 4-[3,3-dimethyl-5-(2-oxo-3-pyridin-4-yl-imidazolidin-1-yl)-pentyloxy]-benzaldehyde O-ethyl-oxime]
- IC50 (EV71-4643): ≤ 38.1 nM
- IC50 (EV71-2231): ≤ 38.1 nM

Structure (SMILES): CCO/N=C/c1ccc(OCC[C@H](C)CCN2CCN(c3ccncc3)C2=O)cc1 [Compound 7, 4-[(R)-3-methyl-5-(2-oxo-3-pyridin-4-yl-imidazolidin-1-yl)-pentyloxy]-benzaldehyde O-ethyl-oxime]
- IC50 (EV71-4643): ≤ 38.1 nM
- IC50 (EV71-2231): ≤ 38.1 nM
